Patent US9751878B2, “Tetrahydronaphthyridine somatostatin receptor 5 antagonists” (Takeda Pharmaceutical Company Limited, priority 2013, dated 2017)

Tests used:
human SSTR5 = biological target: T1, human SSTR5 (Homo sapiens, UniProt P35346); assay: Evaluation of human SSTR5 antagonist activity using intracellular cAMP concentration as index; type: cell-based; settings: 1 μM test compound; CHO (dhfr-) cells stably expressing human SSTR5; 0.1 nM somatostatin 28, 0.3 μM forskolin; cAMP HTRF; read-out: Inhibition rate against SSTR5 at 1 μM
T1 construct: expressed in transfected cells
Experimental: Evaluation of Human SSTR5 Antagonist Activity Using Intracellular cAMP Concentration as Index
The intracellular cAMP concentration was measured using HTRF cAMP dynamic 2 kit (Cisbio Bioassays). Each test compound diluted with an assay buffer (HBSS (Invitrogen Corp.) containing 5 mM HEPES (pH 7.5) (Invitrogen Corp.), 0.1% fatty-acid free BSA (Sigma-Aldrich Corp.), and 500 μM IBMX (Wako Pure Chemical Industries, Ltd.)) was added at a concentration of 2 μL/well to a 384-well white plate (Greiner Bio-One Co., Ltd.) to give the final concentration of 1 μM. A frozen stock of CHO (dhfr-) cells stably expressing the human SSTR5 gene (Accession No. NM_001053) was thawed in a thermostat bath of 37° C. and suspended in a subculture medium (MEM alpha (Wako Pure Chemical Industries, Ltd.), 10% dialyzed serum (Gemini Bio-Products), and 50 μg/mL gentamicin (Invitrogen Corp.). After centrifugation of the cell suspension, the cells were resuspended in an assay buffer and added at a concentration of 2 μL/well (about 4,000 cells/well) to the plate. The compound and the cells were incubated for 15 minutes, and then, an assay buffer containing 0.1 nM (final concentration) somatostatin 28 (Toray Research Center) and 0.3 μM (final concentration) forskolin (Wako Pure Chemical Industries, Ltd.) was added thereto at a concentration of 2 μL/well, followed by incubation at room temperature for 30 minutes. cAMP-d2 and anti-cAMP-cryptate were each added thereto at a concentration of 3 μL/well. The plate was left standing at room temperature for 60 minutes. Then, the fluorescence resonance energy transfer (FRET) intensity was measured using Multi-label reader Envision (PerkinElmer). The FRET intensity of the wells supplemented with the test compound group was converted to a cAMP concentration using a calibration curve prepared from the FRET intensity of a well group containing an assay buffer supplemented with an arbitrary concentration of cAMP. The inhibitory activity of each compound was calculated according to the following expression: Inhibitory activity (%)=(C−B)/(A−B)×100 A: cAMP concentration calculated from the wells supplemented with 0.3 μM forskolin B: cAMP concentration calculated from the wells supplemented with 0.3 μM forskolin and 0.1 nM somatostatin 28 C: cAMP concentration calculated from the wells supplemented with 0.3 μM forskolin, 0.1 nM somatostatin 28, and 1 μM test compound

[1] = tested on: Male KK-Ay/Ta mice, a type 2 diabetes model; assay: Antidiabetic effect in mice (1); type: in vivo; settings: 10 mg/kg orally once a day for 2 weeks; n=8
Experimental: Antidiabetic Effect in Mice (1)
Male KK-Ay/Ta mice (Clea Japan Inc.), a type 2 diabetes model, were used in this study. At the age of 7-week old, blood samples were collected from tail vein at 8:00 am, and animals were divided into separate groups (n=8) based on glycated hemoglobin (GHb), plasma glucose, insulin, triglyceride levels and body weight. Vehicle (0.5% (w/v) methylcellulose) or the compound of Example 67 (10 mg/kg) (suspended in vehicle) were orally administered once a day for 2 weeks. After 2 weeks of treatment, GHb was determined by auto-analyzer HLC-723G8 (TOSOH, Japan).

[2] = tested on: high fat diet-fed male C57BL6J mice; assay: Glucose tolerance test in mice (oral glucose tolerance test); type: in vivo; settings: 1 mg/kg oral, n=6
Experimental: Glucose Tolerance Test in Mice
Oral glucose tolerance test was performed in high fat diet-fed male C57BL6J mice (Clea Japan Inc.). 8 weeks old mice were fasted overnight and divided into separate groups (n=6) based on plasma glucose levels and body weight. Vehicle (0.5% (w/v) methylcellulose) or the compound of Example 72 (1 mg/kg) (suspended in vehicle) were orally given to animals and glucose was loaded (5 g/kg) 1 h after drug administration. Blood was collected from tail vein and blood glucose levels (mg/dL) were measured by ACCU-CHEK (Roche Inc.) at time 0 (just before glucose load), 10, 30, 60 and 120 min after glucose load.

T1 sequence (P35346 whole entry): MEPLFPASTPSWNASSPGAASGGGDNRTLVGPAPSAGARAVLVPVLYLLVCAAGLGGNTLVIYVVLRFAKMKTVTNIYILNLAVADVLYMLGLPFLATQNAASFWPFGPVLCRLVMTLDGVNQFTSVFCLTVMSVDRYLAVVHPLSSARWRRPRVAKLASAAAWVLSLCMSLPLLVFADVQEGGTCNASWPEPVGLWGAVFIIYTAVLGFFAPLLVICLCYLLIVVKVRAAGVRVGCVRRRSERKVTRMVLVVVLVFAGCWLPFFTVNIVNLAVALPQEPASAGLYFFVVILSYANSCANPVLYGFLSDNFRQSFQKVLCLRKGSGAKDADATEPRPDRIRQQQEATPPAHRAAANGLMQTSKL

inhibition at 1 µM (human SSTR5) [%] | SMILES | also measured
96 | CCCOc1cc(CN2CCC(N3CCc4nc(CCC)c(C(=O)O)cc4C3=O)CC2)cc(C2CC2)c1-c1ccc(F)cc1 [Example 61, 6-(1-((2-Cyclopropyl-4′-fluoro-6-propoxybiphenyl-4-yl)methyl)piperidin-4-yl)-5-oxo-2-propyl-5,6,7,8-tetrahydro-1,6-naphthyridine-3-carboxylic acid] | –
92 | CCCc1nc2c(cc1C(=O)O)C(=O)N(C1CCN(Cc3cc(OCC)c(-c4ccc(F)c(F)c4)c(C4CC4)c3)CC1)CC2 [Example 62, 6-(1-((2-Cyclopropyl-6-ethoxy-3′,4′-difluorobiphenyl-4-yl)methyl)piperidin-4-yl)-5-oxo-2-propyl-5,6,7,8-tetrahydro-1,6-naphthyridine-3-carboxylic acid] | –
97 | CCCc1nc2c(cc1C(=O)O)C(=O)N(C1CCN(Cc3cc(OC(C)C)c(-c4ccc(F)cc4)c(C4CC4)c3)CC1)CC2 [Example 63, 6-(1-((2-Cyclopropyl-4′-fluoro-6-isopropoxybiphenyl-4-yl)methyl)piperidin-4-yl)-5-oxo-2-propyl-5,6,7,8-tetrahydro-1,6-naphthyridine-3-carboxylic acid] | –
89 | CCCc1nc2c(cc1C(=O)O)C(=O)N(C1CCN(Cc3cc(OCC)c(-c4ccc(F)cc4F)c(C4CC4)c3)CC1)CC2 [Example 64, 6-(1-((2-Cyclopropyl-6-ethoxy-2′,4′-difluorobiphenyl-4-yl)methyl)piperidin-4-yl)-5-oxo-2-propyl-5,6,7,8-tetrahydro-1,6-naphthyridine-3-carboxylic acid] | –
86 | CCCc1nc2c(cc1C(=O)O)C(=O)N(C1CCN(Cc3cc(C4CC4)c(-c4ccc(F)cc4F)c(F)c3OC)CC1)CC2 [Example 65, 6-(1-((6-Cyclopropyl-2,2′,4′-trifluoro-3-methoxybiphenyl-4-yl)methyl)piperidin-4-yl)-5-oxo-2-propyl-5,6,7,8-tetrahydro-1,6-naphthyridine-3-carboxylic acid] | –
64 | CCc1nc2c(cc1C(=O)O)C(=O)N(C1CCN(Cc3cc(C4CC4)c(-c4ccc(F)cc4F)c(Cl)c3OC)CC1)CC2 [Example 66, 6-(1-((2-Chloro-6-cyclopropyl-2′,4′-difluoro-3-methoxybiphenyl-4-yl)methyl)piperidin-4-yl)-2-ethyl-5-oxo-5,6,7,8-tetrahydro-1,6-naphthyridine-3-carboxylic acid] | –
97 | CCc1nc2c(cc1C(=O)O)C(=O)N(C1CCN(Cc3cc(C4CC4)c(-c4ccc(F)cc4)c(F)c3OC(C)C)CC1)CC2 [Example 72, 6-(1-((6-Cyclopropyl-2,4′-difluoro-3-isopropoxybiphenyl-4-yl)methyl)piperidin-4-yl)-2-ethyl-5-oxo-5,6,7,8-tetrahydro-1,6-naphthyridine-3-carboxylic acid] | blood glucose levels, 10 min ([2]; 10 min after glucose load (5 g/kg)): 283 mg/dL; blood glucose levels, 30 min ([2]; 30 min after glucose load (5 g/kg)): 269 mg/dL; blood glucose levels, 60 min ([2]; 60 min after glucose load (5 g/kg)): 267 mg/dL; blood glucose levels, 120 min ([2]; 120 min after glucose load (5 g/kg)): 140 mg/dL; blood glucose levels, 0 min ([2]; time 0 (just before glucose load, 1 h after drug administration)): 123 mg/dL; AUCpre-120 min ([2]; blood glucose AUC, glucose load 5 g/kg): 463 mg·h/dL
82 | CCCc1nc2c(cc1C(=O)O)C(=O)N(C1CCN(Cc3cc(C4CC4)c(-c4ccc(F)cc4)c(F)c3OC)CC1)CC2 [Example 81, 6-(1-((6-Cyclopropyl-2,4′-difluoro-3-methoxybiphenyl-4-yl)methyl)piperidin-4-yl)-5-oxo-2-propyl-5,6,7,8-tetrahydro-1,6-naphthyridine-3-carboxylic acid] | –

The remaining lines, values behind:

SMILES | inhibition at 1 µM (human SSTR5) [%] | also measured
CCOc1cc(-c2ccc(F)cc2)c(C2CC2)cc1CN1CCC(N2CCc3nc(COC)c(C(=O)O)cc3C2=O)CC1 [Example 47, 6-(1-((2-Cyclopropyl-5-ethoxy-4′-fluorobiphenyl-4-yl)methyl)piperidin-4-yl)-2-(methoxymethyl)-5-oxo-5,6,7,8-tetrahydro-1,6-naphthyridine-3-carboxylic acid] | 106 | –
CCOc1cc(-c2ccc(F)cc2F)c(C2CC2)cc1CN1CCC(N2CCc3nc(COC)c(C(=O)O)cc3C2=O)CC1 [Example 48, 6-(1-((2-Cyclopropyl-5-ethoxy-2′,4′-difluorobiphenyl-4-yl)methyl)piperidin-4-yl)-2-(methoxymethyl)-5-oxo-5,6,7,8-tetrahydro-1,6-naphthyridine-3-carboxylic acid] | 99 | –
CCOc1cc(-c2ccc(F)cc2)c(C2CC2)cc1CN1CCC(N2CCc3nc(C(C)C)c(C(=O)O)cc3C2=O)CC1 [Example 49, 6-(1-((2-Cyclopropyl-5-ethoxy-4′-fluorobiphenyl-4-yl)methyl)piperidin-4-yl)-2-isopropyl-5-oxo-5,6,7,8-tetrahydro-1,6-naphthyridine-3-carboxylic acid] | 91 | –
CC(C)Oc1cc(-c2ccc(F)cc2)c(C2CC2)cc1CN1CCC(N2CCc3nc(C(C)C)c(C(=O)O)cc3C2=O)CC1 [Example 50, 6-(1-((2-Cyclopropyl-4′-fluoro-5-isopropoxybiphenyl-4-yl)methyl)piperidin-4-yl)-2-isopropyl-5-oxo-5,6,7,8-tetrahydro-1,6-naphthyridine-3-carboxylic acid] | 99 | –
CCCc1nc2c(cc1C(=O)O)C(=O)N(C1CCN(Cc3cc(C4CC4)c(C4CC4)cc3OCC)CC1)CC2 [Example 51, 6-(1-(4,5-Dicyclopropyl-2-ethoxybenzyl)piperidin-4-yl)-5-oxo-2-propyl-5,6,7,8-tetrahydro-1,6-naphthyridine-3-carboxylic acid] | 103 | –
CCCc1nc2c(cc1C(=O)O)C(=O)N(C1CCN(Cc3cc(C4CC4)c(C4CCC4)cc3OCC)CC1)CC2 [Example 52, 6-(1-(4-Cyclobutyl-5-cyclopropyl-2-ethoxybenzyl)piperidin-4-yl)-5-oxo-2-propyl-5,6,7,8-tetrahydro-1,6-naphthyridine-3-carboxylic acid] | 114 | –
CCOc1cc(CN2CCC(N3CCc4nc(C(=O)O)ccc4C3=O)CC2)cc(OCC)c1-c1ccc(F)cc1 [Example 53, 6-(1-((2,6-Diethoxy-4′-fluorobiphenyl-4-yl)methyl)piperidin-4-yl)-5-oxo-5,6,7,8-tetrahydro-1,6-naphthyridine-2-carboxylic acid] | 108 | –
CCOc1cc(-c2ccc(F)cc2)c(C2CC2)cc1CN1CCC(N2CCc3nc(C(=O)O)ccc3C2=O)CC1 [Example 54, 6-(1-((2-Cyclopropyl-5-ethoxy-4′-fluorobiphenyl-4-yl)methyl)piperidin-4-yl)-5-oxo-5,6,7,8-tetrahydro-1,6-naphthyridine-2-carboxylic acid] | 123 | –
CCCc1nc2c(cc1C(=O)O)C(=O)N(C1CCN(Cc3cc(C4CC4)c(-c4ccc(F)cc4)c(F)c3OCC)CC1)CC2 [Example 67, 6-(1-((6-Cyclopropyl-3-ethoxy-2,4′-difluorobiphenyl-4-yl)methyl)piperidin-4-yl)-5-oxo-2-propyl-5,6,7,8-tetrahydro-1,6-naphthyridine-3-carboxylic acid] | – | Average of delta GHb (%) [1]: 0.40%
